{"source": "ChEMBL document CHEMBL5096167", "about": "“Recent advances in development of hetero-bivalent kinase inhibitors” (Eur J Med Chem, 2021)", "key": {"Ephrin type-A receptor 3": {"target": "T1, Ephrin type-A receptor 3 (Homo sapiens, UniProt P29320)", "T1 sequence (P29320 whole entry)": "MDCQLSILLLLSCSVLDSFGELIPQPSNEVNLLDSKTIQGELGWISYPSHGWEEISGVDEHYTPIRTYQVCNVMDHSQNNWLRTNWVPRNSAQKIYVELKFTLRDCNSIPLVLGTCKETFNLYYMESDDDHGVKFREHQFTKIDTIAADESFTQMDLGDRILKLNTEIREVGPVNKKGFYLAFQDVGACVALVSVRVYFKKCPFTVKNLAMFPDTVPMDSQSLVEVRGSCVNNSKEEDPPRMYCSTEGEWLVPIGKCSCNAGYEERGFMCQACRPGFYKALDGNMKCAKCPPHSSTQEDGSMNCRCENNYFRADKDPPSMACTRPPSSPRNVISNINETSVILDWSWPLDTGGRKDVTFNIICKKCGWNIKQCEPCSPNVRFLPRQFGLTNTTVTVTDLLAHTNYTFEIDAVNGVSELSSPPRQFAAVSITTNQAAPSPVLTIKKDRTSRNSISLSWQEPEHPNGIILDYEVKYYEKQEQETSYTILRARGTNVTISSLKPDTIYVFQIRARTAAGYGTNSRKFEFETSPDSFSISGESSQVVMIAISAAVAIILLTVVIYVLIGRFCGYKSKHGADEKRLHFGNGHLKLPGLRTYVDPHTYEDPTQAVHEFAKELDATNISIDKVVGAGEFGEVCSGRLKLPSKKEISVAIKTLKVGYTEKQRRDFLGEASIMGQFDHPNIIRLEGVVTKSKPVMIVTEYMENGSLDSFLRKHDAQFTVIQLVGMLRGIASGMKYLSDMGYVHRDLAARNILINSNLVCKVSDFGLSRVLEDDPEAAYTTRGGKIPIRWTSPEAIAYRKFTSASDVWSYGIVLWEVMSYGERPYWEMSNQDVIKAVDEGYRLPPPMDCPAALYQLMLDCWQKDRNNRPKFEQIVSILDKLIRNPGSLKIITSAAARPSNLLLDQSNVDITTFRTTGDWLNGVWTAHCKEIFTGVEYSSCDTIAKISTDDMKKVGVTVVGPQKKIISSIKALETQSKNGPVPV", "test": "Inhibition of EPHA3 (unknown origin) assessed as dissociation constant by ELISA-like binding assay"}, "[1]": {"target": "T2, Serine/threonine-protein kinase haspin (Homo sapiens, UniProt Q8TF76)", "T2 sequence (Q8TF76 whole entry)": "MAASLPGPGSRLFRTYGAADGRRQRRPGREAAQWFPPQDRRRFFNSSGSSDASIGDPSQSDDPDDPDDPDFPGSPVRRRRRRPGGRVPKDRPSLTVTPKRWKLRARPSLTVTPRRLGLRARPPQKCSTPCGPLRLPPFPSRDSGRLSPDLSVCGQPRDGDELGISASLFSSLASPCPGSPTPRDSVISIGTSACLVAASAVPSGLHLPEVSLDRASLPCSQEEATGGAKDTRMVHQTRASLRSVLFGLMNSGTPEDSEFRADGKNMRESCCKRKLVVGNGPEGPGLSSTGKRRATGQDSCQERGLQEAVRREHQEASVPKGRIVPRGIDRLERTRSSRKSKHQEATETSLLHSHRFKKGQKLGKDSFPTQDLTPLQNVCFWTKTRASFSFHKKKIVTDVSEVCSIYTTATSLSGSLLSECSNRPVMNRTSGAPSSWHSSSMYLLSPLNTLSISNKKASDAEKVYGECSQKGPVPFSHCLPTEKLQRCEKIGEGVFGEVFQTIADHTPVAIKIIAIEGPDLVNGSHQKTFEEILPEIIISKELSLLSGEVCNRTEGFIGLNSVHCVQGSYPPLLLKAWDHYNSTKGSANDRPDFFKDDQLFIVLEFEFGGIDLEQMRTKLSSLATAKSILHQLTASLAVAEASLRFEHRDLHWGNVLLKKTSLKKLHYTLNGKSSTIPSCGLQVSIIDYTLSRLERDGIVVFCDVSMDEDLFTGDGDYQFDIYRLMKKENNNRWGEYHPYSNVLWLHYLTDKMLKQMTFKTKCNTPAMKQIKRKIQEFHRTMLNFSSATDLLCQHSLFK"}, "[2]": {"target": "T2, Serine/threonine-protein kinase haspin", "remark": "listed apart in the source"}, "[3]": {"test": "Binding affinity to full length human recombinant PKAc assessed as dissociation constant"}, "[4]": {"target": "cAMP-dependent protein kinase (PKA) (Homo sapiens, UniProt P22694+P17612+P22612)"}, "[5]": {"test": "Inhibition of CK2alpha2beta2 (unknown origin)", "set-up": "species or system Homo sapiens"}, "Casein kinase 2": {"target": "Casein kinase 2 (Homo sapiens, UniProt P67870+P68400+P19784+Q8NEV1)", "test": "Inhibition of human CK2", "type": "protein assay"}, "[6]": {"target": "Casein kinase II subunit alpha (Homo sapiens, UniProt P68400)", "sequence (P68400 whole entry)": "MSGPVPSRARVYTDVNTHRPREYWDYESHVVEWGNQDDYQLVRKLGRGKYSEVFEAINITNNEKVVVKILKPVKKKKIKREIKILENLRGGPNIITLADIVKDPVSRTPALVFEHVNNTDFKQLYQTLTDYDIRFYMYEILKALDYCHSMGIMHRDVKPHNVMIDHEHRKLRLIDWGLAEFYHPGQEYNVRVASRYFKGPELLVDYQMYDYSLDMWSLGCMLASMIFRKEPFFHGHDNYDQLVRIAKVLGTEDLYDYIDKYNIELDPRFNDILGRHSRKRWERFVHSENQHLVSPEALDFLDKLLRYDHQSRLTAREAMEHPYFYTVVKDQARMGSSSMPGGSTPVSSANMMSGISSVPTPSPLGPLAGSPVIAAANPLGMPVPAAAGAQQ", "test": "Inhibition of CK2alpha in human MIA PaCa-2 cells incubated for 5 hrs by western blot analysis", "type": "cell-based"}, "[7]": {"target": "Proto-oncogene tyrosine-protein kinase Src (Homo sapiens, UniProt P12931)", "sequence (P12931 2-536 limits assumed)": "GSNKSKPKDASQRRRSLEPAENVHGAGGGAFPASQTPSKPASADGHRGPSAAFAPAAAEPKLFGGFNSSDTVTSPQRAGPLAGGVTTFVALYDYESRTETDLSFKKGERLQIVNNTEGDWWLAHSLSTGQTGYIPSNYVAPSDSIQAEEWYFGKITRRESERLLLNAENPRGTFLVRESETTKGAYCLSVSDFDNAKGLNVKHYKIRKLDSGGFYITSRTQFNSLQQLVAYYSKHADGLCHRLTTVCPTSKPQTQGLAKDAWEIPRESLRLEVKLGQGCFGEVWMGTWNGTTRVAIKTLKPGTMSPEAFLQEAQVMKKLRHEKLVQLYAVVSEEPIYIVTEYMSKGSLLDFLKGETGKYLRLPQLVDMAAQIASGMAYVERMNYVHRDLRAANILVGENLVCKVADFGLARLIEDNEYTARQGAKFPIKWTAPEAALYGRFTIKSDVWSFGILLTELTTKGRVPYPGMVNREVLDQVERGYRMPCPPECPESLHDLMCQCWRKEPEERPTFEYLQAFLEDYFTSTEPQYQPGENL", "test": "Inhibition of c-Src (unknown origin)"}}, "note": "*1 amine or outer side, *2 acyl side, *3 side chain or, on linkers, in order; H or OH if unused. Where a SMILES comes first, the peptide text is derived from it. [ ]: non-standard residue; d: D form. The star is where a group is joined. ξ: configuration not given here. X1 = Brc1c(Br)c(Br)c2[nH]c(NCCCN*)nc2c1Br; X2 = O=C(Cc1c(Br)c(Br)c(Br)c2[nH]nnc12)*; Suc = O=C(CCC(=O)[*:2])[*:1]; ξE = NC(CCC(=O)O)C(=O)O; ξS = NC(CO)C(=O)O", "data": [{"smiles": "CC(C)(C)n1nc(-c2ccc(Cl)cc2)c2c(N)ncnc21", "values": [{"measurement": "Kd", "setting": "Ephrin type-A receptor 3", "result": 200000, "unit": "nM"}]}, {"smiles": "Nc1ncnc2c1ncn2[C@@H]1O[C@H](C(=O)O)[C@@H](O)[C@H]1O", "note": "[5'-CARBOXY ADENOSINE]", "values": [{"measurement": "Kd", "setting": "[1]", "result": "> 15000", "unit": "nM"}]}, {"smiles": "C[C@H](N)C(=O)N[C@@H](CCCNC(=N)N)C(=O)N[C@@H](CCCCNC(=O)C[C@@H](NC(=O)CCCCCNC(=O)[C@H]1O[C@@H](n2cnc3c(N)ncnc32)[C@H](O)[C@@H]1O)C(N)=O)C(=O)N[C@@H](CCCCN)C(=O)N[C@@H](CCC(=O)O)C(=O)N[C@H](C(=O)N[C@@H](C)C(N)=O)[C@H](C)O", "values": [{"measurement": "Kd", "setting": "[2]", "result": 170, "unit": "nM"}, {"measurement": "Kd", "setting": "[3]", "result": 1600, "unit": "nM"}, {"measurement": "Selectivity Index", "setting": "Homo sapiens", "result": 9}]}, {"smiles": "CO[C@@H]1[C@H](N(C)C(=O)CCC(=O)O)C[C@H]2O[C@]1(C)n1c3ccccc3c3c4c(c5c6ccccc6n2c5c31)C(=O)NC4", "values": [{"measurement": "IC50", "setting": "[4]", "result": 159, "unit": "nM"}]}, {"smiles": "COC(=O)CC[C@H](NC(=O)CCC(=O)NCCCNc1nc2c(Br)c(Br)c(Br)c(Br)c2[nH]1)C(=O)N[C@@H](CCC(=O)OC)C(=O)N[C@@H](CCC(=O)OC)C(=O)N[C@@H](CCC(=O)OC)C(=O)OC", "note": "({X1-Suc}-E(OMe)E(OMe)E(OMe)E(OMe)-OMe)", "values": [{"measurement": "IC50", "setting": "[5]", "result": 10000, "unit": "nM"}]}, {"smiles": "CC(C)[C@@H]1NC(=O)[C@H](CCCNC(=N)N)NC(=O)[C@H](Cc2ccccc2)NC(=O)[C@H]([C@@H](C)O)NC(=O)[C@@H](N)CSSC[C@@H](C(=O)NCC(N)=O)NC(=O)NC(=O)[C@H](Cc2ccccc2)NC1=O", "values": [{"measurement": "IC50", "setting": "[4]", "result": 57000, "unit": "nM"}]}, {"smiles": "CO[C@@H]1[C@H](N(C)C(=O)CCC(=O)NCCCOCCOCCOCCCNC(=O)COCC(=O)N[C@H]2CSSC[C@@H](C(=O)NCC(N)=O)NC(=O)NC(=O)[C@H](Cc3ccccc3)NC(=O)[C@H](C(C)C)NC(=O)[C@H](CCCNC(=N)N)NC(=O)[C@H](Cc3ccccc3)NC(=O)[C@H]([C@@H](C)O)NC2=O)C[C@H]2O[C@]1(C)n1c3ccccc3c3c4c(c5c6ccccc6n2c5c31)C(=O)NC4", "values": [{"measurement": "IC50", "setting": "[4]", "result": 2.6, "unit": "nM"}]}, {"smiles": "NC(=O)C(CCC(=O)O)NC(=O)C(CCC(=O)O)NC(=O)C(CCC(=O)O)NC(=O)C(CO)NC(=O)C(CCC(=O)O)NC(=O)[C@@H](N)CCCCNC(=O)Cc1c(Br)c(Br)c(Br)c2[nH]nnc12", "note": "(some centres not stated) (H-K(X2)[ξE][ξS][ξE][ξE][ξE]-NH2)", "values": [{"measurement": "IC50", "setting": "Casein kinase 2", "result": 670, "unit": "nM"}]}, {"smiles": "CC(=O)OCOC(=O)CN(CC(=O)OCOC(C)=O)C(=O)CN(CC(=O)OCOC(C)=O)C(=O)CN(CC(=O)OCOC(C)=O)C(=O)CCCCCCCn1cnc2c(Br)c(Br)c(Br)c(Br)c21", "values": [{"measurement": "IC50", "setting": "[6]", "result": 47, "unit": "nM"}]}, {"smiles": "CC[C@H](C)[C@H](NC(=O)[C@H](CCC(=O)O)NC(=O)[C@H](CCC(=O)O)NC(=O)[C@H](Cc1ccc(P(=O)(O)O)cc1)NC(=O)[C@H](CCC(=O)O)NC(=O)COCC(=O)NCCOCCOCCOCCOCCOCCOCCOCCOCCn1cc(CCC(=O)N2CCN(c3cc(Nc4cc(C5CC5)[nH]n4)nc(C)n3)CC2)nn1)C(N)=O", "values": [{"measurement": "IC50", "setting": "[7]", "result": 160, "unit": "nM"}]}]}
